# Measured values reported in BindingDB's records for doi:10.1016/0960-894X(96)00185-0 (1996).
# Biological target: Human immunodeficiency virus type 1 protease (Human immunodeficiency virus 1, UniProt Q72874)
# Test: ChEBML_159443
# From the text: In vitro inhibitory activity against HIV-1 protease(PR).
row,SMILES,IC50 [nM]
1,O=c1oc(-c2ccc(O)cc2)cc(O)c1SCc1ccccc1 [3-Benzylsulfanyl-4-hydroxy-6-(4-hydroxy-phenyl)-pyran-2-one],690
2,O=c1oc(-c2cccc(Cl)c2)cc(O)c1SCc1ccccc1 [3-Benzylsulfanyl-6-(3-chloro-phenyl)-4-hydroxy-pyran-2-one],690
